Results taken from US20190307820A1, “COMPOSITIONS AND METHODS OF USING STAT1/3 INHIBITORS WITH ONCOLYTIC HERPES VIRUS” (priority 2016, published 2019).

What was measured:
U373 cells = experiment: MTT cytotoxicity assay, U373 cells; assay type: cell-based; settings: Homo sapiens, U373 MG, 72 hours, read-out: Inhibitory concentration 50% (IC50)
Method: FIGS. 1A-1B are graphs that show an anti-tumor effect of nifuroxazide. (FIG. 1A) Cells were treated with indicated concentration of nifuroxazide for 72 hours. Cytotoxicity was measured by using MTT assay. (FIG. 1B) Subcutaneously U87 tumor bearing mice were peritoneally injected with indicated doses of nifuroxazide. Tumor size was measured using calipers at day 7 post nifuroxazide treatment.
In this example, the antitumor effect of nifuroxazide is evaluated in different tumor cells. Cells were treated with nifuroxazide for 72 hours (FIG. 1A). […] To verify the anti-tumor efficacy of nifuroxazide in vivo, animals with subcutaneous U87 tumor implants were injected in the peritoneum with vehicle, 1 mg/kg nifuroxazide and 50 mg/kg nifuroxazide. […] Tumor volume was reduced around 25% and 60% after 7 days treatment with 1 mg/kg nifuroxazide and 50 mg/kg nifuroxazide respectively (FIG. 1B).
Cells were seeded in a 96-well plate at a density of 1×104 (U87). After overnight incubation, cells were treated with only vehicle or indicated MOI of virus or indicated concentration of drugs or reagents. After 2 to 3 days of treatment cell viability was measured by MTT assay (Sigma, Canada) according to the manufacturer's instruction. […] After overnight incubation with lysis buffer, cell viability was measured at 595 nm using a plate reader (Envision 2103 Multilabel reader, Perkin Elmer).

[1] = system: oHSV-1 (HrR3) in 9L cells; experiment: oHSV-1 (HrR3) replication in 9L cells, titrated in vero cells; assay type: cell-based, HSV-1; settings: HrR3 MOI-0.1, 48 hours
Method: (§1) FIGS. 2A-2B contain charts that show the effect of nifuroxazide on replication of oHSV-1. (FIG. 2A) Indicated cells were infected with HrR3 viruses at MOI-0.1. Viruses were harvested at 48 hours post-infected and titrated in vero cells. Data are presented as mean SD, *P<0.05 vs corresponding vehicle treatment. (FIG. 2B) U87 or glio cells were treated with HrR3 at a MOI of 1 and indicated concentration of nifuroxazide for 48 hours. Total DNA was extracted and subjected to qPCR to detect HSV-1 using ICP27 primer. nifuroxazide mediated oHSV-1% increase was represented in the figure.
(§2) In this example, the effect of nifuroxazide on oHSV-1 anti-tumor efficacy was evaluated. oHSV-1 infected treated glioma cells were incubated with low concentration of nifuroxazide. Replication increased 27- and 40-fold with 0.5 μM nifuroxazide and 10 μM nifuroxazide treated U87 cells respectively. Similarly, virus replication increased 0.8- and 4.7-fold virus in 9L cells treated with 0.5 μM nifuroxazide and 10 μM nifuroxazide respectively (FIG. 2A).

HrR3 in U87 glioma cells = experiment: PCR viral titer (ICP27 qPCR) of HrR3 in U87 glioma cells; assay type: cell-based, HSV-1; settings: HrR3 MOI of 1, 48 hours
Method: as §1, §2

ICP4 = experiment: Western blot of ICP4 in HrR3 infected U87 cells; assay type: cell-based, HSV-1; settings: 0.5 μM, 1 μM and 10 μM nifuroxazide, HrR3 MOI-3, 24 hours
Method: FIGS. 4A-4C show the effect of nifuroxazide on HSV-1 gene expression. (FIG. 4A) U87 cells were treated with HrR3 viruses at a MOI-3 and indicated doses of nifuroxazide. 24 hours post infected, total protein was extracted and subjected to western blot analysis. (FIG. 4B) U87 cells were treated with HrR3 at a MOI-5 and indicated concentration of nifuroxazide for 6 hours. ICP27 mRNA level was detected by RT-qPCR. (FIG. 4C) Relative mRNA level (2^−ΔΔCT) is shown. Data are presented as mean SD, *P<0.05 vs corresponding vehicle treatment.
In this example, the underlying mechanism of nifuroxazide mediated oHSV-1 replication enhancement was examined. The effect of nifuroxazide on viral immediate early gene, ICP27 and ICP4 expression was established by Western blot analysis.

STAT1 = target: T1, STAT1 (Mus musculus, UniProt P42225); experiment: Western blot of STAT1 phosphorylation in CT26 cells; assay type: cell-based; settings: 24 hours
T1 construct: Total protein was extracted after 24 hours and subjected to western blot analysis; endogenous in cells; host or cells: CT26 cells, with or without HrR3 infection
Method: (§3) FIG. 19A and FIG. 19B, U87 cells (A) or CT26 cells (B) were treated with the indicated concentrations of HrR3 or NF or a combination. Total protein was extracted after 24 hours and subjected to western blot analysis. Band intensity was measured using Image J software and normalized to β-actin. Samples were run in triplicate and data are as means±S.E. Statistically significant differences are indicated by P<0.05 or P<0.01. FIG. 19C, Mice subcutaneously bearing U87 tumors were intratumorally injected with a single dose of HrR3 virus (1×10^6 PFU) and/or peritoneally injected doses of NF as indicated. Tumors were harvested on day 10 post treatment and total protein was extracted from a mouse of each treatment group and subjected to western blot analysis in triplicate. Results are reported as means±S.E.
NF is a known inhibitor of STAT1 and STAT3. To evaluate the underlying molecular mechanism of the anti-tumour effect of the NF and oHSV-1 combination, the STAT1 and STAT3 status in U87 cells (FIG. 19A) and CT26 cells (FIG. 19B) cells was determined after an overnight treatment with NF and oncolytic viruses.

pSTAT3 = target: T2, pSTAT3 (Homo sapiens, UniProt P40763); experiment: Western blot of phosphorylated STAT3 in harvested U87 tumour tissues; assay type: in vivo, mice; settings: HrR3 with 50 mg/kg or 100 mg/kg NF i.p., day 10
T2 construct: from tissue; host or cells: subcutaneous U87 tumours harvested from mice
Method: as §3, with “FIGS. 19A-C show STAT inhibition by the combination of NF and oHSV-1. FIG. 19A” for “FIG. 19A”
To further confirm that NF is able to inhibit STAT activation in vivo, subcutaneously implanted U87 tumours were treated with either HrR3 alone or in combination with 50 mg/kg NF or 100 mg/kg NF. Expression levels of phosphorylated STAT1/3 in harvested tumour tissues were measured by western blotting.

T1 sequence (P42225 whole entry): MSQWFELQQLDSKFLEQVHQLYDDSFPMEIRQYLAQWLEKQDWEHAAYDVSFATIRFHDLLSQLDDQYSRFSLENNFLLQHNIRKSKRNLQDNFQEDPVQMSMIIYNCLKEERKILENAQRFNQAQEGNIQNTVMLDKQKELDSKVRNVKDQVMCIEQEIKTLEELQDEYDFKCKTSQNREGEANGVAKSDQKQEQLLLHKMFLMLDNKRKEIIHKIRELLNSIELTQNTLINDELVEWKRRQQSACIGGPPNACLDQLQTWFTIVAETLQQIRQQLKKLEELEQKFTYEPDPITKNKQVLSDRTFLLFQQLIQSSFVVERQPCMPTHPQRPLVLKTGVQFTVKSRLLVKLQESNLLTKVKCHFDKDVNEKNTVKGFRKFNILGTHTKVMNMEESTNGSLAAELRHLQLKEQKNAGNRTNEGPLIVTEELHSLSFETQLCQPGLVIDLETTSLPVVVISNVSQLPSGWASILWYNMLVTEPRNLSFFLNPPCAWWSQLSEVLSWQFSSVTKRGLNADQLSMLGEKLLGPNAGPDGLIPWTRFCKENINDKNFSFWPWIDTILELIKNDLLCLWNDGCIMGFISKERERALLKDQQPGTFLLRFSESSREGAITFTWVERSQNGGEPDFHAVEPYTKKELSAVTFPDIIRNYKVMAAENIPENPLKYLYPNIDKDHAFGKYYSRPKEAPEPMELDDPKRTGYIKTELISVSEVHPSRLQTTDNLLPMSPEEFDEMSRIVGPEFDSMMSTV
T2 sequence (P40763 whole entry): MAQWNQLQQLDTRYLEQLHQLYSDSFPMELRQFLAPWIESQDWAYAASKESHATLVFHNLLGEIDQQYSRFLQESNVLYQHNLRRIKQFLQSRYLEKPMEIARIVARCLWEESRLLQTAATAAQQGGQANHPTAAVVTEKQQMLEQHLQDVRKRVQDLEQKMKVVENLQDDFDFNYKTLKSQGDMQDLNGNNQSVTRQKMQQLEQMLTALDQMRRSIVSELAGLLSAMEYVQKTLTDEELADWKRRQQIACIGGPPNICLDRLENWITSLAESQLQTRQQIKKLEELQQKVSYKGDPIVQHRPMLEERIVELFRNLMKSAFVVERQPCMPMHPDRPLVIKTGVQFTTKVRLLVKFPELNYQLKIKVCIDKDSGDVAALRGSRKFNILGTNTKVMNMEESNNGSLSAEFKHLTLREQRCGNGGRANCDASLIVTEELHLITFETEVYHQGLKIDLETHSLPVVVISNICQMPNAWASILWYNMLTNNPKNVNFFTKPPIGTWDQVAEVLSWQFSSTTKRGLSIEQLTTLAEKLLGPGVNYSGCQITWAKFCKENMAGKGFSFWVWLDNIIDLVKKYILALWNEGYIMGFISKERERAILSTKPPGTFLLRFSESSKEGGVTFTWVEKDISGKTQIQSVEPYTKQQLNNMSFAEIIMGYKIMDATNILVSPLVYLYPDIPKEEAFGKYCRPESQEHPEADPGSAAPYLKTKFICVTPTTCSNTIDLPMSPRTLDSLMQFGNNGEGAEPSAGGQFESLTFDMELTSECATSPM

O=C(N/N=C/c1ccc([N+](=O)[O-])o1)c1ccc(O)cc1 [nifuroxazide, Benzoic acid, 4-hydroxy-, [(5-nitro-2-furanyl)metylene]hydrazide]
IC50 (U373 cells): ~23 µM
virus replication increased ([1]; 0.5 μM nifuroxazide): 0.8 fold
virus replication increased ([1]; 10 μM nifuroxazide): 4.7 fold
PCR viral titer (HrR3 in U87 glioma cells): dose dependent HrR3 replication enhancement
ICP4 expression (ICP4): not ICP4 expression
HrR3 induced upregulation of STAT1 phosphorylation (STAT1): effectively suppressed
phosphorylation of STAT1 (STAT1; NF alone): dose dependent inhibition
virally induced upregulation of pSTAT3 (pSTAT3): inhibited in a dose-dependent fashion
